Legend:
Conditions in all cases: qualitative statement
D2 = D2 (Homo sapiens, UniProt P14416); experiment: Receptor binding, D2
D1 = D1 (Homo sapiens, UniProt P21728); experiment: Receptor binding, D1
SERT = SERT (Homo sapiens, UniProt P31645); experiment: Receptor binding, SERT
5-HT2A = 5-HT2A (Homo sapiens, UniProt P28223); experiment: Receptor binding, 5-HT2A
Mu opiate receptor = Mu opiate receptor (Homo sapiens, UniProt P35372); experiment: Receptor binding, Mu opiate receptor
Sequence of Mu opiate receptor (P35372 whole entry): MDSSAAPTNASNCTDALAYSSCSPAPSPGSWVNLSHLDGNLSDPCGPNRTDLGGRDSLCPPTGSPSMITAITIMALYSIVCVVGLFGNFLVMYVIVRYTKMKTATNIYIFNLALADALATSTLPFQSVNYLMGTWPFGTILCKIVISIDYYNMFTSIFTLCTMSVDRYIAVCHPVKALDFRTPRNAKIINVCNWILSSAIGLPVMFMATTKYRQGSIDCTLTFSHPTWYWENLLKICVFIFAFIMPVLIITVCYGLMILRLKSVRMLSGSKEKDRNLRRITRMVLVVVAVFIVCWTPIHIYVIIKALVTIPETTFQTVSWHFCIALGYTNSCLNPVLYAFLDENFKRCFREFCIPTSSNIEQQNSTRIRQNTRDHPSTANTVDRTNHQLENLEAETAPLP

Sequence of SERT (P31645 whole entry): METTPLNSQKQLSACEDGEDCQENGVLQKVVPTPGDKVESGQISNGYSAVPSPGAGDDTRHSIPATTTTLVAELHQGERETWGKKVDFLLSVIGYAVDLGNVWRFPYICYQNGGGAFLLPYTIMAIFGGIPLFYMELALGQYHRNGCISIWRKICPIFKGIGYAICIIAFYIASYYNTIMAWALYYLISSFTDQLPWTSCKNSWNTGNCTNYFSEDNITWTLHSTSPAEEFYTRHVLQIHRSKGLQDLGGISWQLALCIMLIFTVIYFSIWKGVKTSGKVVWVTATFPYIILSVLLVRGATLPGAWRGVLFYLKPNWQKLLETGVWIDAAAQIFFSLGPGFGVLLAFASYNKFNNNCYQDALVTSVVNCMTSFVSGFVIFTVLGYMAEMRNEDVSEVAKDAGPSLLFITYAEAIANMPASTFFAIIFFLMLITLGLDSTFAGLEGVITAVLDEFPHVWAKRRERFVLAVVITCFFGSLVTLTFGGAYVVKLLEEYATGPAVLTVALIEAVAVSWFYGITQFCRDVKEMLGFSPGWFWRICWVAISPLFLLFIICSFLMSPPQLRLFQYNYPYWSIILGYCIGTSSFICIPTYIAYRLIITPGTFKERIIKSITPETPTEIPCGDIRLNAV
Sequence of D1 (P21728 whole entry): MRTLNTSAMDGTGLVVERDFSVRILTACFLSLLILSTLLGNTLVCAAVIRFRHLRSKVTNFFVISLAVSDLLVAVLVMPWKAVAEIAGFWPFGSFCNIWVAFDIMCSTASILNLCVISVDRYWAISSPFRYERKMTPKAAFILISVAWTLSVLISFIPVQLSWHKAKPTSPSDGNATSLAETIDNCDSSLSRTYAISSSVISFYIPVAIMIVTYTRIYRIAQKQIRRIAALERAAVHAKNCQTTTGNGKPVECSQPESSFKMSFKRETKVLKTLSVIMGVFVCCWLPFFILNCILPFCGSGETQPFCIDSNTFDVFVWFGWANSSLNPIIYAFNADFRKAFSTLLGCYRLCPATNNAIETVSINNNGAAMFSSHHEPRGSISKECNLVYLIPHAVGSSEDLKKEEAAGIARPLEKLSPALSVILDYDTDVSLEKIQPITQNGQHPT
Sequence of D2 (P14416 1-414 isoform P14416-2): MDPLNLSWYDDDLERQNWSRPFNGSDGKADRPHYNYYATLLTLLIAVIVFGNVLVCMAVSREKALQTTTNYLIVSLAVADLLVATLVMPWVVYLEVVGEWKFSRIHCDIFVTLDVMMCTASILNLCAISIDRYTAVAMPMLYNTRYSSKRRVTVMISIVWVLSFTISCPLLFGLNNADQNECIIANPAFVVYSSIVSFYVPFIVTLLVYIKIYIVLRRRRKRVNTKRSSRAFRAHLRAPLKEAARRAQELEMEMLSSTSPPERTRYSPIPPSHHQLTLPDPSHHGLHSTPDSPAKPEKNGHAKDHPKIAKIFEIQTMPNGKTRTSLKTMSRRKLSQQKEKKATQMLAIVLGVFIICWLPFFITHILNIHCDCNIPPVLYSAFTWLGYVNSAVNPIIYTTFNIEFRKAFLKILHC
Sequence of 5-HT2A (P28223 whole entry): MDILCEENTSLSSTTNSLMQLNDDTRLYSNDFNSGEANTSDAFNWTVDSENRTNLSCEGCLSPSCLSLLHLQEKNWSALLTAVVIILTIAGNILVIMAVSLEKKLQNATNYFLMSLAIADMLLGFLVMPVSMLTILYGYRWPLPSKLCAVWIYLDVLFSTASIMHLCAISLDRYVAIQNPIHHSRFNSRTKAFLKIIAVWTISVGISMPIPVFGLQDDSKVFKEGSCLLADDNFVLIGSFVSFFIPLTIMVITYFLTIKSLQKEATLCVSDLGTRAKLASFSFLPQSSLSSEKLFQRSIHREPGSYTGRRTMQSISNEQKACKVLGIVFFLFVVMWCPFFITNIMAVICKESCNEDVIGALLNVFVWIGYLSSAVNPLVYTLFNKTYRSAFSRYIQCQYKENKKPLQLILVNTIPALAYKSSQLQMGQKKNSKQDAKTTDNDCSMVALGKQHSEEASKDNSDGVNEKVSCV

Structure (SMILES) | D2 receptor binding, in words (D2) | D1 receptor binding, in words (D1) | SERT activity, in words (SERT) | 5-HT2A receptor activity, in words (5-HT2A) | mu-opiate receptor binding, in words (Mu opiate receptor)
O=C1CN2c3c(cccc3[C@@H]3CN(CCCOc4ccc(F)cc4)CC[C@H]32)N1 (racemic) [Example 1, trans-8-(3-(4-fluorophenoxy)propyl)-6b,7,8,9,10,10a-hexahydro-1H-pyrido[3′,4′:4,5]pyrrolo[1,2,3-de]quinoxalin-2(3H)-one] | moderate D2 receptor binding | very strong | no SERT activity | – | –
O=C1CN2c3c(cccc3[C@@H]3CN(CCCOc4ccc(F)cc4)CC[C@@H]32)N1 [Compound A] | – | – | very little SERT binding | – | –
O=C1CN2c3c(cccc3[C@H]3CN(CCCOc4ccc(F)cc4)CC[C@H]32)N1 [Compound B] | weak D2 receptor affinity | moderately strong D1 receptor binding | no SERT activity | moderately strong | only weak mu receptor activity

Source: patent US20250101029A1, “ORGANIC COMPOUNDS” (INTRA-CELLULAR THERAPIES, INC., priority 2022, published 2025)
